# Measurements from patent publication US5274076A, “Hydrophilic derivatives, their application to diagnosis and to therapeutics, diagnostic or therapeutic kits and immunological reagents” (Immunotech Partners, priority 1989, dated 1993).
# Residues, ends and D or L forms follow the SMILES beside them. Groups on a side chain read outwards from the residue. *: point of attachment. DTPA = O=C(O)CN(CCN(CC(=O)O)CC(=O)O)CCN(CC(=O)O)CC(=O)*
# Key:
# [1] = Tolerance to probes in animals; format: in vivo, BALB/c mice; conditions: 10 nanomoles, observed 16 days; compounds 1 and 2 complexed with non-radioactive indium
# Experimental: Doses corresponding to 10 nanomoles, i.e. about 10,000 times more than the dose required for radioimmunoscintigraphy, of compounds 1 and 2 previously complexed with non-radioactive indium and compound 3 are administered to BALB/c mice. These mice are then observed for 16 days under normal breeding conditions.
# [2] = test system: human melanoma cells (A375); assay: Radioimmunoscintigraphy and organ radioactivity counting of human melanoma grafted on nude mice, pretargeted with anti-melanoma anti-DTPA-indium dual specificity conjugate; format: in vivo; conditions: for specificity of tumour binding: A375 tumour in nude mice
# Experimental: Radioimmunoscintigraphy of human melanoma grafted on to nude mice with anti-melanoma anti-DTPA indium dual specificity conjugates and N-α-DTPA-tyrosyl-N-ε-DTPA-lysine labelled with indium 111.
# (§1) 3.10^6 human melanoma cells (A375) are injected subcutaneously into the abdomen of nude mice. 3 to 4 weeks later the mice develop tumours of 0.5 to 2 g. The mice are then injected with 2 to 10 μg of dual specificity conjugate prepared by chemical coupling of the F(ab)'2 fragment of a […] anti-melanoma antibody (mouse monoclonal antibody IgG1, kappa) to the reduced F(ab)'2 fragment of an anti-DTPA-indium antibody (mouse monoclonal antibody IgG1, lambda) using the heterobifunctional reagent EMCS.
# (§2) Twenty four hours later, mice are injected with 10 μCi of the derivative of Example 1 labelled with indium-111. Images are then produced at selected time intervals using a Sopha Medical Gammatome 2 gamma camera equipped with a medium energy high-resolution collimator or the animals are killed and the major organs and the tumour are measured for radioactivity associated with indium-111 using a gamma counter.
# [3] = test system: human melanoma cells (A375); assay: Comparison of indium-111-labelled probes in the labelling of tumours in mice (tumour/organ contrast); format: in vivo, nude mice; conditions: for Contrast cpm/g in the tumour/cpm/g in the organ: Heart / Contrast cpm/g in the tumour/cpm/g in the organ: Kidneys / Contrast cpm/g in the tumour/cpm/g in the organ: Liver / Contrast cpm/g in the tumour/cpm/g in the organ: Lung / Contrast cpm/g in the tumour/cpm/g in the organ: Plasma / Contrast cpm/g in the tumour/cpm/g in the organ: Spleen: 3 hours after injection of the radiolabelled probe
# Experimental: as §1, §2
# Comparison between compound 1 labelled with indium-111 and di-(DNP-lys)-DTPA in the labelling of tumours in mice.
# Experiments are carried out as in Example 5 but the mice are given indium-111-labelled di-(DNP-lys)-DTPA (derivative 1 of French Patent Application 86.13146) instead of the derivative 1 described above. Three hours after injection of the probe, the mice are dissected and the gamma radioactivity of the major organs and tumour is counted. It is observed that the tumour accumulates a dose of radioactivity equivalent to that Obtained with the two compounds of Example 1 of the present invention. However, the elimination of the excess radioactivity is substantially more rapid with the compounds of the present invention, as shown by the following table: […]
# [4] = indium-111 labelled, after dual specificity conjugate
# [5] = radioactivity measured after 24 hours
Compound,signs of toxicity [1],weight gain versus control animals [1],specificity of tumour binding [2],Contrast cpm/g in the tumour/cpm/g in the organ: Heart [3],Contrast cpm/g in the tumour/cpm/g in the organ: Kidneys [3],Contrast cpm/g in the tumour/cpm/g in the organ: Liver [3],Contrast cpm/g in the tumour/cpm/g in the organ: Lung [3],Contrast cpm/g in the tumour/cpm/g in the organ: Plasma [3],Contrast cpm/g in the tumour/cpm/g in the organ: Spleen [3],further results
"O=C(O)CN(CCN(CC(=O)O)CC(=O)O)CCN(CC(=O)O)CC(=O)NCCCC[C@H](NC(=O)[C@H](Cc1ccc(O)cc1)NC(=O)CN(CCN(CCN(CC(=O)O)CC(=O)O)CC(=O)O)CC(=O)O)C(=O)O [Example 1, N-α-DTPA-tyrosyl-N-ε-DTPA-lysine] ({DTPA}-Tyr-Lys(DTPA)-OH)",No sign of toxicity,not significantly different,specific,14.9,3.5,10.8,8.2,1.7,12.7,"tumour accumulation of radioactivity without dual specificity conjugate or with conjugate specific for another tumour antigen ([2]; control without or with irrelevant conjugate): did not accumulate significant amounts of radioactivity; time after injection at which tumours can be observed on gamma camera images ([2]; indium-111 labelled, 10 μCi, 24 h after dual specificity conjugate): Only a few minutes; non-specific accumulation of radioactivity [2, 4]: essentially limited to the kidneys; time in which a large majority of the circulating radioactivity is eliminated [2, 4]: less than 24 hours; time in which radioactivity bound to the tumour is established [2, 4]: within a few hours; time radioactivity bound to the tumour remains stable [2, 4]: at least two days; tumour/organ ratio (T/O), all organs except the kidneys [2, 5]: > 3; tumour/organ ratio (T/O), kidneys [2, 5]: 0.7"
"O=C(O)CN(CCN(CC(=O)O)CC(=O)O)CCN(CC(=O)O)CC(=O)NCC(=O)NCCCC[C@H](NC(=O)CNC(=O)CN(CCN(CCN(CC(=O)O)CC(=O)O)CC(=O)O)CC(=O)O)C(=O)N[C@@H](Cc1ccc(O)cc1)C(=O)O [Example 2, N-α-N-ε-di-(DTPA-glycyl)-lysyl-tyrosine] ({DTPA}-Gly-Lys([Gly-DTPA])-Tyr-OH)",No sign of toxicity,not significantly different,–,–,–,–,–,–,–,–
"O=C(CCC(=O)NCC(=O)NCCCC[C@H](NC(=O)CNC(=O)CCC(=O)NCCc1cnc[nH]1)C(=O)N[C@@H](Cc1ccc(O)cc1)C(=O)O)NCCc1cnc[nH]1 [Example 3, N-α-N-ε-di-(histamine-succinyl-glycyl)-lysyl-tyrosine]",No sign of toxicity,not significantly different,–,–,–,–,–,–,–,–
"DTPA [indium-111-labelled DTPA, reference compound]",–,–,little specific binding is observed,–,–,–,–,–,–,"elimination/excretion of radioactivity ([2]; mouse, in vivo): excreted very rapidly"
di-(DNP-lys)-DTPA [derivative of the prior art],–,–,–,2.1,1.0,1.3,0.9,0.2,1.8,"dose of radioactivity accumulated by the tumour compared with Example 1 ([3]; 3 hours after injection, indium-111 labelled): equivalent"
